The text below walks through data of patent publication US6716829B2, “Aldosterone antagonist and cyclooxygenase-2 inhibitor combination therapy to prevent or treat inflammation-related cardiovascular disorders” (Pharmacia Corporation, priority 2000, dated 2004).

Assay [1] deals with osteopontin. Briefly: Assay B: osteopontin immunohistochemistry in the heart. Format: in vivo, Male Sprague Dawley rats. As to conditions: aldosterone-infused rats; eplerenone 100 mpk; increased dietary potassium group. As for the experimental part: Assay B: In Vivo Aldosterone Infusion Model Male Sprague Dawley rats (n=39; BW=250 g) 2. Aldosterone (0.75 mg/hr, sc via alzet minipump) 2. […] Determination of osteopontin and COX-2 was performed by quantitative RT-PCR (Taqman). Osteopontin was also identified in the heart by immunohistochemistry.

The test system of assay [2] is aldosterone-infused, saline-drinking, uni-nephrectomized rats. Briefly: Assay B: heart histology (hematoxylin&eosin), vascular inflammatory lesions and myocardial injury. Format: in vivo, Male Sprague Dawley rats. As to conditions: eplerenone 100 mpk p.o., 0.6% KCl group, 4 weeks. The protocol: Assay B: In Vivo Aldosterone Infusion Model Male Sprague Dawley rats (n=39; BW=250 g) […] Uni-nephrectomy performed during implantation of mini-pumps 2. Aldosterone ([…], sc via alzet minipump) 2. […] 1. […] Sacrifice after 4 weeks. Hearts were harvested and divided by half through a transverse section at the mid-ventricles: The upper half was stored into formalin. The bottom part was snap-frozen in liquid nitrogen for biochemical analysis. Hearts were stained with hematoxylin&eosin and the collagen specific dye picro-sirius red and were analyzed for determination of interstitial collagen volume fraction and morphologic abnormalities (i.e. necrosis, vascular injury).

In assay [3] the test system is angiotensin II infused rats. The assay is described as follows: Assay A, angiotensin II infusion model: systolic blood pressure by tail-cuff. As to conditions: angiotensin II 25 ng/min sc, 1% NaCl; eplerenone 100 mpk; aldosterone in adrenalectomized rats; 4 weeks. The assay is classed as in vivo, Male Wistar rats. As for the experimental part:
Human cardiovascular disorders are complex conditions, often initiated by vascular hypertension or a myocardial infarction (MI). In order to determine the probable effectiveness of a therapy for cardiovascular disorders, it is important to determine the potency of components in several assays. Accordingly, in Assay “A”, the efficacy of the aldosterone antagonist epeplerenone (epoxymexrenone) was determined in a hypertensive rat model with vascular inflammation, using angiotensin II infusion. In Assay “B” a study is described evaluating the efficacy of the aldosterone antagonist epeplerenone (epoxymexrenone) in a rat model using aldosterone infusion to produce hypertension with vascular inflammation. In Assay “C” a further study is described evaluating the efficacy of the aldosterone antagonist epeplerenone (epoxymexrenone) in a rat model using aldosterone infusion to produce hypertension with vascular inflammation.
Assay A: In Vivo Angiotensin II Infusion Model
Male Wistar rats (n=50, 10/group; BW=200 g)
SBP measured by tail-cuff every week

For assay [4], the system named is coronary arteries of angiotensin II/salt-treated animals. The assay is described as follows: Assay A: heart histology (hematoxylin&eosin), vascular inflammatory lesions and myocardial injury. The assay is classed as in vivo, Male Wistar rats. The note with it: of ten animals per group; angiotensin II/salt; eplerenone 100 mpk; 4 weeks. An excerpt:
Sacrifice by exanguination after 4 weeks. Blood was be collected in dry tubes for determination of serum electrolytes and in EDTA-containing tubes for measurement of aldosterone and corticosterone levels Hearts were stained with hematoxylin&eosin and have been analyzed for determination of morphologic abnormalities (i.e. necrosis, vascular injury).

As for `[Cl-].[K+]` [dietary potassium], the “Osteopontin expression in the heart (immunostaining)” value in assay [1] is given as “did not reduce osteopontin expression”. In addition, in assay [2], the “Vascular inflammatory changes / myocardial injury” value is on record as “did not have significant effects”.

As for “angiotensin II: infused 25 ng/min sc via alzet minipump to produce hypertensive rat model with vascular inflammation (DRVYIHPF; Angiotensin-2; UniProt P01015 25-32, looked up)”, in assay [3], the Systolic Blood Pressure entry is listed as “increased”. For the same compound, the “Animals with vascular inflammatory changes (lesions) in the coronary arteries” value in assay [4] was “Seven out of the ten”.
